In the Deep4Chem optical property database:

Test: solvent given as SMILES
[1] = in c1ccc2c(c1)c1ccccc1n2-c1ccc(-c2ccc(-n3c4ccccc4c4ccccc43)cc2)cc1

Work on CCCCCCCCCCCCCCOc1ccc(C#Cc2cc3nc4c(OCCCCCCCCCCCC)cc5c6cc(OCCCCCCCCCCCC)c(OCCCCCCCCCCCC)cc6c6cc(OCCCCCCCCCCCC)c(OCCCCCCCCCCCC)cc6c5c4nc3cc2C#Cc2ccc(OCCCCCCCCCCCCCC)cc2)cc1 yielded an emission maximum (in ClC(Cl)Cl) of 663 nm.
Molecule O=P1(c2ccccc2)c2cc(N3c4ccccc4Sc4ccccc43)ccc2-c2ccc(N3c4ccccc4Sc4ccccc43)cc21 has an emission maximum (in Cc1ccccc1) of 557 nm and an emission maximum [1] of 554 nm.
COc1ccc2c(c1)c1cc(OC)ccc1n2-c1ccc2c(c1)-c1cc(-n3c4ccc(OC)cc4c4cc(OC)ccc43)ccc1P2(=O)c1ccccc1 showed an emission maximum (in Cc1ccccc1) of 476 nm and an emission maximum [1] of 490 nm.
Work on CCCc1ccc(C#Cc2cc(C#Cc3ccc(N(C)C)cc3)c3ccc4c(C#Cc5ccc(N(C)C)cc5)cc(C#Cc5ccc(CCC)cc5)c5ccc2c3c54)cc1 yielded an emission maximum (in ClCCl) of 591 nm.
With CC(C)(C)c1ccc(Oc2cc3c4c(cc(Oc5ccc(C(C)(C)C)cc5)c5c6c(Oc7ccc(C(C)(C)C)cc7)cc7c8c(cc(Oc9ccc(C(C)(C)C)cc9)c(c2c45)c86)C(=O)OC7=O)C(=O)OC3=O)cc1 the emission maximum (in ClC(Cl)Cl) was 615 nm.
For CN(C)c1cccc2c1ccc1c(=O)oc(-c3ccc(C(F)(F)F)cc3)cc12, the emission maximum (in CC(C)=O) was 611 nm, the emission maximum (in CCCCCCCCO) was 585 nm and the emission maximum (in CCCCO) was 586 nm. For the same molecule, the emission maximum (in CCCO) was 591 nm, the emission maximum (in CCO) was 602 nm and the emission maximum (in CCOC(C)=O) was 578 nm. For the same molecule, the emission maximum (in CN(C)C=O) was 614 nm, the emission maximum (in CO) was 612 nm and the emission maximum (in ClC(Cl)Cl) was 538 nm.
Cn1c2ccccc2c2cc(/C=C/C3=[O+][B-](F)(F)OC(/C=C/c4ccc5c(c4)c4ccccc4n5C)=C3c3ccccc3)ccc21 showed an emission maximum (in ClCCl) of 636 nm.
In the case of CN(c1ccccc1)c1ccc(/C=C/c2ccccc2)cc1, the emission maximum (in CC#N) is reported as 450 nm and the emission maximum (in CCCCCC) is reported as 385 nm.
CC(=O)c1ccc(-c2nc3ccc(N(C)C)cc3s2)cc1 showed an emission maximum (in C1CCCCC1) of 435 nm, an emission maximum (in CC#N) of 588 nm and an emission maximum (in CC(C)O) of 611.34 nm. For the same molecule, the emission maximum (in CO) was 676 nm, the emission maximum (in CS(C)=O) was 587.85 nm and the emission maximum (in ClC(Cl)Cl) was 524 nm. The emission maximum (in c1ccccc1) was 487.85 nm.
With O=c1oc2c(ccc3cc(O)ccc32)nc1-c1ccccc1 the emission maximum (in c1ccccc1) was 487 nm.
With CCC1(CC)c2cc(N(C)C)ccc2-c2ccc(C(F)(F)F)cc21 the emission maximum (in C1CCCCC1) was 360 nm, the emission maximum (in CC#N) was 337 nm and the emission maximum (in CCO) was 388 nm. The emission maximum (in CCOCC) was 373 nm, the emission maximum (in CS(C)=O) was 414 nm and the emission maximum (in ClCCl) was 387 nm. It also gave an emission maximum (in c1ccccc1) of 374 nm.
With CN(C)c1ccc(-c2ccc(-c3cc(-c4ccccc4)c(-c4ccccc4)c(-c4ccccc4)c3-c3ccccc3)s2)cc1 the emission maximum (in ClC(Cl)Cl) was 419 nm.
COc1cc(OC)cc(C2=[O+][B-](F)(F)OC(c3ccc4ccccc4c3)=C2)c1 gave an emission maximum (in CC#N) of 521.21 nm, an emission maximum (in CC(C)=O) of 521.21 nm and an emission maximum (in CCCCCC) of 418.89 nm. For the same molecule, the emission maximum (in Cc1ccccc1) was 492.31 nm and the emission maximum (in ClCCl) was 560 nm.
For COc1ccc(/C=C/C(=O)c2ccccc2O)cc1OC, the emission maximum (in C1COCCO1) was 425 nm, the emission maximum (in CC#N) was 436 nm and the emission maximum (in CCCO) was 495 nm. For the same molecule, the emission maximum (in CCO) was 500 nm, the emission maximum (in CN(C)C=O) was 473 nm and the emission maximum (in CO) was 510 nm. The emission maximum (in CS(C)=O) was 480 nm, the emission maximum (in ClC(Cl)Cl) was 462 nm and the emission maximum (in ClCCl) was 460 nm.
Molecule COC(=O)/C=C/c1sc(-c2ccc(N(C)C)cc2)cc1N has an emission maximum (in CC#N) of 609 nm.
In the case of N#CC(C#N)=Cc1ccc2c(c1)c1ccccc1n2-c1cc2ccccc2c2ccccc12, the emission maximum (in CC#N) is reported as 503 nm, the emission maximum (in CCCCC) is reported as 451 nm and the emission maximum (in Cc1ccccc1) is reported as 445 nm. For the same molecule, the emission maximum (in ClCCl) was 480 nm.
In the case of C[Si]1(C)O[Si](C)(C)c2cc3c(-c4ccccc4)c4cc([N+](=O)[O-])ccc4nc3cc21, the emission maximum (in ClCCl) is reported as 521 nm.
Cc1c(OCC(=O)O)cc2c3c([nH]c2c1C)C(=O)CCC3 showed an emission maximum (in C1COCCO1) of 403.62 nm, an emission maximum (in CC#N) of 419.17 nm and an emission maximum (in CCO) of 461.12 nm. The emission maximum (in CS(C)=O) was 427.12 nm and the emission maximum (in O) was 507.23 nm.
Work on Cc1cc(-n2c3ccccc3c3cc4c(cc32)C2c3ccccc3C4c3ccccc32)c(C)cc1-c1nc(-c2ccccc2)nc(-c2ccccc2)n1 yielded an emission maximum (in Cc1ccccc1) of 427 nm and an emission maximum (in O=P(c1ccccc1)(c1ccccc1)c1ccccc1Oc1ccccc1P(=O)(c1ccccc1)c1ccccc1) of 442 nm.
For COc1ccc2c(CC(=O)NN)coc2c1, the emission maximum (in C1CCOC1) was 381 nm, the emission maximum (in CC#N) was 376 nm and the emission maximum (in CC(C)=O) was 396 nm. The emission maximum (in CCCCO) was 384 nm, the emission maximum (in CCCO) was 396 nm and the emission maximum (in CCO) was 374 nm. The emission maximum (in CCOC(C)=O) was 368 nm, the emission maximum (in CN(C)C=O) was 378 nm and the emission maximum (in CO) was 378 nm. For the same molecule, the emission maximum (in ClCCl) was 402 nm.
Molecule c1cc2cc(c1)c1ccc3c(c1)c1cc(ccc1[C@]14OCCO[C@]31OCCO4)c1ccc3c(c1)c1cc(ccc1[C@]14OCCO[C@]31OCCO4)c1cccc2c1 has an emission maximum (in ClC(Cl)Cl) of 347 nm.
Work on CC(C)(C)c1cccc2c1oc1nc3oc4cc(-n5c6ccccc6c6ccccc65)ccc4c3cc12 yielded an emission maximum (in ClC(Cl)Cl) of 397 nm.
Work on COC(=O)C(Cc1ccc2oc(-c3ccc(N(c4ccccc4)c4ccccc4)cc3)nc2c1)NC(=O)OC(C)(C)C (configuration not stated) yielded an emission maximum (in C1CCCCC1) of 395.25 nm, an emission maximum (in C1CCOC1) of 447.04 nm and an emission maximum (in C1COCCO1) of 436.75 nm. For the same molecule, the emission maximum (in CC1CCCCC1) was 395 nm, the emission maximum (in CC1COC(=O)O1) was 474 nm and the emission maximum (in CC#N) was 465.75 nm. The emission maximum (in CC(C)=O) was 456.17 nm, the emission maximum (in CC(C)O) was 455.75 nm and the emission maximum (in CC(O)CO) was 482.75 nm. The emission maximum (in CCCCCC) was 392.75 nm, the emission maximum (in CCCCCCCC) was 394 nm and the emission maximum (in CCCCCO) was 454.75 nm. It also gave an emission maximum (in CCCCO) of 454.5 nm, an emission maximum (in CCO) of 475.75 nm and an emission maximum (in CCOC(C)=O) of 448.75 nm. The emission maximum (in CN(C)C=O) was 461.75 nm, the emission maximum (in CO) was 486 nm and the emission maximum (in COCCOC) was 453.75 nm. For the same molecule, the emission maximum (in CS(C)=O) was 474.5 nm, the emission maximum (in ClC(Cl)Cl) was 445 nm and the emission maximum (in ClCCl) was 451.25 nm. The emission maximum (in N#Cc1ccccc1) was 461.25 nm, the emission maximum (in NC=O) was 491.5 nm and the emission maximum (in O) was 502.99 nm. For the same molecule, the emission maximum (in OCC(F)(F)F) was 496.25 nm.
For N#Cc1ccc(/C=C2\N=C(c3ccccc3)NC2=O)cc1, the emission maximum (in C1COCCO1) was 464 nm.
Cc1cc(=O)cc(-c2ccc(-c3nc4ccccn4c3NC3CCCCC3)cc2)o1 gave an emission maximum (in ClCCl) of 500 nm.
COc1ccc(C2=Cc3c4ccccc4c4ccccc4[n+]3[B-](F)(F)O2)cc1 showed an emission maximum (in ClC(Cl)Cl) of 461 nm.
O=C1CC(c2ccccc2)c2c(c3ccccc3c3nc4ccccc4nc23)O1 (configuration not stated) gave an emission maximum (in ClC(Cl)Cl) of 431 nm.
Molecule O=c1c2cc(F)ccc2nc2n1[B-](F)(F)[n+]1ccccc1-2 has an emission maximum (in CC#N) of 437 nm and an emission maximum (in ClCCl) of 438 nm.
In the case of CN(C)c1ccc(-n2c(-c3ccc(C#N)cc3)nc3ccccc32)cc1, the emission maximum (in CC#N) is reported as 586 nm.
COc1ccc2c(C=C(C#N)C#N)cc3ccc4cc(C=C(C#N)C#N)c5ccc(OC)cc5c4c3c2c1 showed an emission maximum (in ClC(Cl)Cl) of 545 nm.
For Cc1cc(O)c(C(=O)/C=C/c2ccccc2[N+](=O)[O-])c(=O)o1, the emission maximum (in CC#N) was 480 nm and the emission maximum (in ClCCl) was 471 nm.
Work on CC1=CC(/C=C/c2ccc(OCCCN=[N+]=[N-])cc2)=[N+]2C1=C(c1ccc(N(C)C)cc1)c1c(C)cc(C)n1[B-]2(F)F yielded an emission maximum (in CO) of 586 nm.
Work on CCCCOC(=O)c1cc(Cl)c2c3c(Cl)cc4c5c(cc(Cl)c(c6c(Cl)cc(C(=O)OCCCC)c1c26)c53)C(=O)N(c1c(C(C)C)cccc1C(C)C)C4=O yielded an emission maximum (in Cc1ccccc1) of 530 nm.
Work on CN(C)c1ccc(/C=C/c2cnc(-c3ccncc3)o2)cc1 yielded an emission maximum (in ClCCl) of 550 nm.
